The values below come from patent US10899738B2 (THE REGENTS OF THE UNIVERSITY OF MICHIGAN, priority 2016, dated 2021).

This assay addresses menin protein (Homo sapiens (Human), UniProt O00255). The assay is described as follows: biochemical. Format: binding. The note with it: FP competitive binding; menin protein 4 nM, FAM-MM2 probe 2 nM; read-out: Menin Binding Affinity IC50. In a few lines:
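Test compounds displaced FAM-MM2 (2 nM) from 4 nM menin after 30 min equilibration at room temperature in PBS buffer containing bovine γ-globulin, 4% DMSO and Triton X-100. Binding was followed by fluorescence polarization. Competition curves were fitted by nonlinear regression to give IC50 and Ki.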

Chain of menin protein (O00255 whole entry): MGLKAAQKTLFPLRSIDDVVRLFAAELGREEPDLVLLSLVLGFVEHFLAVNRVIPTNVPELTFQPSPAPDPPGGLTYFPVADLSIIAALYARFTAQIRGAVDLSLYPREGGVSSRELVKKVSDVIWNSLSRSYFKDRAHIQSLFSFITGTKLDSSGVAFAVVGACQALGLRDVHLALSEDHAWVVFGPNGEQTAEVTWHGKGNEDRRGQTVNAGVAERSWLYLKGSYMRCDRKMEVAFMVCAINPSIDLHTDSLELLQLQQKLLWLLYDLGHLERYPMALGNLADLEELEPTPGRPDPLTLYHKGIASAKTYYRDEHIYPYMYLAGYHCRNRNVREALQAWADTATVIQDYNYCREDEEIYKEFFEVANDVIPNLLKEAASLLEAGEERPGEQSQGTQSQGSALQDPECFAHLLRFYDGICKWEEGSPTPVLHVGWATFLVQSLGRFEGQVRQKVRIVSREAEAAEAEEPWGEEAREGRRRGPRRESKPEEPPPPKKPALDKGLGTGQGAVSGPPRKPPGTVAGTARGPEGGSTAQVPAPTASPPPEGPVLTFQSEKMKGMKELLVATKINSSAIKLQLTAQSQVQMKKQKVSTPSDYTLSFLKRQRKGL

For orientation: IC50 means the point on the concentration scale where inhibition reaches its midpoint. For `N#Cc1ccc2[nH]c(CCN3CCC(C4(C5CCCC5)NCCc5ccccc54)CC3)cc2c1` (stereo not shown) [compound 67, 2-(2-(4-(1-cyclopentyl-1,2,3,4-tetrahydroisoquinolin-1-yl)piperidin-1-yl)ethyl)-1H-indole-5-carbonitrile], the IC50 was 1.2 µM.
The figure for `CC1CN(CCCOc2ccc(C#N)cc2)CCC1C(C#N)(c1ccccc1)C1CCCC1` (stereo not shown) [compound 120, 4-(3-(4-(cyano(cyclopentyl)(phenyl)methyl)-3-methylpiperidin-1-yl)propoxy)benzonitrile] is 5.7 µM.
Regarding `CNC(=O)N[C@@H]1CCC[C@H]1C(C#N)(c1ccccc1)C1CCN(CCCOc2ccc(C#N)cc2)CC1` (mixture of isomers) [compound 318, rac-1-((1R,2S)-2-(cyano(1-(3-(4-cyanophenoxy)propyl)piperidin-4-yl)(phenyl)methyl)cyclopentyl)-3-methylurea], the IC50 stood at 20.9 µM.
The figure for `N#Cc1ccc(-c2ccc(N3CCC(C4(C5CCCC5)NCCc5ccccc54)CC3)cc2)cc1` (stereo not shown) [compound 77, 4′-(4-(1-cyclopentyl-1,2,3,4-tetrahydroisoquinolin-1-yl)piperidin-1-yl)-[1,1′-biphenyl]-4-carbonitrile] is 2580 µM; for `N#Cc1ccc(OCCCN2CCC(C3(C4CCC4)NCCc4ccccc43)CC2)cc1` (stereo not shown) [compound 247, 4-(3-(4-(1-cyclobutyl-1,2,3,4-tetrahydroisoquinolin-1-yl)piperidin-1-yl)propoxy)benzonitrile] it is 1.1 µM.
The figure for `N#CC(c1ccccc1)(C1CCN(CC2CN(c3ccc(S(=O)(=O)c4ccncc4)cc3)C2)CC1)[C@@H]1CCC[C@H]1OC(N)=O` (mixture of isomers) [compound 212, rac-(1R,2S)-2-(cyano(phenyl)(1-((1-(4-(pyridin-4-ylsulfonyl)phenyl)azetidin-3-yl)methyl)piperidin-4-yl)methyl)cyclopentyl carbamate] is 0.454 µM; for `CC(=O)N1CCCC(C(C#N)(c2ccccc2)C2CCN(CCCOc3ccc(C#N)cc3)CC2)C1` (stereo not shown) [compound 307, 4-(3-(4-((1-acetylpiperidin-3-yl)(cyano)(phenyl)methyl)piperidin-1-yl)propoxy)benzontrile] it is 30.6 µM; for `CC(C)C(=O)N1CCCCC1C1(C2CCN(CCCOc3ccc(C#N)cc3)CC2)CN(C)Cc2ccccc21` (stereo not shown) [compound 299, 4-(3-(4-(4-(1-isobutyrylpiperidin-2-yl)-2-methyl-1,2,3,4-tetrahydroisoquinolin-4-yl)piperidin-1-yl)propoxy)benzonitrile] it is 16.8 µM.
The figure for `O=S(=O)(c1ccccc1)c1ccc(N2CC(CN3CCC(C(CN4CCCC4)(C4=CCCC4)c4ccccc4)CC3)C2)cc1` (stereo not shown) [compound 355, 4-(1-(cyclopent-1-en-1-yl)-1-phenyl-2-(pyrrolidin-1-yl)ethyl)-1-((1-(4-(phenylsulfonyl)phenyl)azetidin-3-yl)methyl)piperidine] is 0.045 µM; for `COC(=O)N1Cc2ccccc2C(C2CCN(CCCOc3ccc(C#N)cc3)CC2)([C@H]2CCC[C@@H]2OC)C1` (mixture of isomers) [compound 324, methyl rac-4-(1-(3-(4-cyanophenoxy)propyl)piperidin-4-yl)-4-((1R,2S)-2-methoxycyclopentyl)-3,4-dihydroisoquinoline-2(1H)-carboxylate] it is 9.6 µM.
For `CC(=O)O[C@H]1CCC[C@@H]1C(C#N)(c1ccccc1)C1CCN(CC2CN(c3ccc(S(C)(=O)=O)cc3)C2)CC1` (mixture of isomers) [compound 183, rac-(1S,2R)-2-(cyano(1-((1-(4-(methylsulfonyl)phenyl)azetidin-3-yl)methyl)piperidin-4-yl)(phenyl)methyl)cyclopentyl acetate], the IC50 turned out to be 0.073 µM.
The figure for `C[C@H](NC(=O)O[C@H]1CCC[C@@H]1[C@](C#N)(c1ccccc1)C1CCN(CC2CN(c3ccc(S(=O)(=O)c4ccncc4)cc3)C2)CC1)c1ccccc1` [compound 217, (1S,2R)-2-((S)-cyano(phenyl)(1-((1-(4-(pyridin-4-ylsulfonyl)phenyl)azetidin-3-yl)methyl)piperidin-4-yl)methyl)cyclopentyl ((S)-1-phenylethyl)carbamate] is 11.6 µM; for `N#Cc1ccc(OCCCN2CCC(C3(C4CCCC4)NCCc4ccc(F)cc43)CC2)cc1` (stereo not shown) [compound 22, 4-(3-(4-(1-cyclopentyl-7-fluoro-1,2,3,4-tetrahydroisoquinolin-1-yl)piperidin-1-yl)propoxy)benzonitrile] it is 0.473 µM; for `CNC(=O)O[C@H]1CCC[C@@H]1C(Cn1ccnc1)(c1ccccc1)C1CCN(CC2CN(c3ccc(C(F)(F)F)cc3)C2)CC1` (mixture of isomers) [compound 421, rac-(1S,2R)-2-(2-(1H-imidazol-1-yl)-1-phenyl-1-(1-((1-(4-(trifluoromethyl)phenyl)azetidin-3-yl)methyl)piperidin-4-yl)ethyl)cyclopentyl methylcarbamate] it is 0.004 µM.
The figure for `CC(=O)O[C@@H]1CCC[C@H]1C1(C2CCN(CC3CN(c4ccc(S(=O)(=O)C5CC5)cc4)C3)CC2)CN(C)Cc2ccc(F)cc21` (mixture of isomers) [compound 317, rac-(1R,2S)-2-(4-(1-((1-(4-(cyclopropylsulfonyl)phenyl)azetidin-3-yl)methyl)piperidin-4-yl)-6-fluoro-2-methyl-1,2,3,4-tetrahydroisoquinolin-4-yl)cyclopentyl acetate] is 0.161 µM.
Turning to `CC(=O)N[C@H]1CCC[C@@H]1C(C#N)(c1ccccc1)C1CCN(CC2CN(c3ccc(C#N)cc3)C2)CC1` (mixture of isomers) [compound 382, rac-N-((1S,2R)-2-(cyano(1-((1-(4-cyanophenyl)azetidin-3-yl)methyl)piperidin-4-yl)(phenyl)methyl)cyclopentyl)acetamide], the IC50 stood at 0.102 µM.
The result for `Cc1nccn1CC(c1ccccc1)(C1CCCC1)C1CCN(CCCOc2ccc(C#N)cc2)CC1` (stereo not shown) [compound 41, 4-(3-(4-(1-cyclopentyl-2-(2-methyl-1H-imidazol-1-yl)-1-phenylethyl)piperidin-1-yl)propoxy)benzonitrile] reads 0.166 µM; that for `N#Cc1ccc(NCCCN2CCC(C3(C4CCCC4)NCCc4ccccc43)CC2)cn1` (stereo not shown) [compound 59, 5-((3-(4-(1-cyclopentyl-1,2,3,4-tetrahydroisoquinolin-1-yl)piperidin-1-yl)propyl)amino)picolinonitrile], 2.3 µM; that for `O=S(=O)(c1ccc(N2CC(F)(CN3CCC(C4(C5CCCC5)NCCc5ccccc54)CC3)C2)cc1)C1CC1` (stereo not shown) [compound 140, 1-cyclopentyl-1-(1-((1-(4-(cyclopropylsulfonyl)phenyl)-3-fluoroazetidin-3-yl)methyl)piperidin-4-yl)-1,2,3,4-tetrahydroisoquinoline], 0.104 µM.
The figure for `COCCCN1CCC(C2(C3CCCC3)NCCc3ccccc32)CC1` (stereo not shown) [compound 73, 1-cyclopentyl-1-(1-(3-methoxypropyl)piperidin-4-yl)-1,2,3,4-tetrahydroisoquinoline] is 9.9 µM; for `N#Cc1ccc(OCCCN2CCC(C(C#N)(CC(=O)N3CCCC3)c3ccccc3)CC2)cc1` (stereo not shown) [compound 306, 4-(3-(4-(1-cyano-3-oxo-1-phenyl-3-(pyrrolidin-1-yl)propyl)piperidin-1-yl)propoxy)benzonitrile] it is 40 µM; for `N#Cc1ccc(N2CC(CN3CCC(C4(C5CCCC5)NCCc5ccccc54)CC3)C2)cn1` (stereo not shown) [compound 109, 5-(3-((4-(1-cyclopentyl-1,2,3,4-tetrahydroisoquinolin-1-yl)piperidin-1-yl)methyl)azetidin-1-yl)picolinonitrile] it is 0.825 µM.
